Assay results from patent publication US20100099132A1, “BACTERIAL GROWTH INDUCER” (priority 2007, published 2010).

Experiments:
[1] = system: E. coli; details: serum-based media; Table 2, prior art WO 98/53047; cited from earlier work
[2] = system: H. alvei; test: Effect of additions on synthesis of BuGro activity by H. alvei in M9 minimal media; assay type: cell-based, Hafnia alvei; details: added at inoculum stage to H. alvei M9 culture: 5% supernatant (approx. 50 units/ml) or 100 μM norepinephrine; listed as NE
Description: Therefore, H. alvei was inoculated at 2×10^6 CFU/ml into M9 minimal media supplemented with 0.4% (w/v) glucose only (ie no addition, N/A), or with 5% culture supernatant from a previous H. alvei M9 culture (approximately 50 units/ml) (HA), or with 100 μM norepinephrine (NE). The cultures were incubated at 37° C. in a rotatory shaking incubator for 18 hrs (final cell density: 2.17, 2.32 and 2.39×10^8 CFU/ml). Bacteria were removed by centrifugation at 10,000 g for 15 minutes, and the resulting culture supernatant was sterilised by passage through a 0.2 micron stericup filter. The sterile supernatant was assayed at various volumes using test strain E. coli E2348/69 inoculated at 10^2 CFU/ml into serum-SAPI media and incubated statically for 17 hrs at 37° C. in a humidified CO2 incubator. Growth levels were measured using Luria agar and pour plate analysis.

[3] = Stability (heat, lyophilisation, storage, enzymes, pH); assay type: physicochemical
Description: BuGro™ and the individual activity Peaks 1, 2 and 3 are each stable to 60 minutes boiling when in a heat-stable buffer such as 50 mM Tris-HCl, pH 7.5 or phosphate buffered saline (PBS). All are fully stable to lyophilisation, and if maintained in a lyophilised form, crude BuGro™ is 90-95% stable to storage at 4° C. for at least 2 years.

Row | SMILES | effect on Bacxell synthesis [1] | effect on synthesis of BuGro activity [2] | stability once synthesised in minimal media such as M9 [3]
1 | NC[C@H](O)c1ccc(O)c(O)c1 [norepinephrine] | 4. Induced by norepinephrine, but also | not induced | 
2 | O=C(N[C@H]1COC(=O)[C@@H](NC(=O)c2cccc(O)c2O)COC(=O)[C@@H](NC(=O)c2cccc(O)c2O)COC1=O)c1cccc(O)c1O [enterobactin] |  |  | highly unstable
